Experimental findings from patent US11066455B2, “Tmem100 peptides and variants thereof and their use in treating or preventing diseases or conditions” (The Johns Hopkins University, priority 2014, dated 2021) are described below.

The subject of assay [1] is ongoing neuropathic pain in SNL rats. The experiment in a line: Conditioned place preference test for ongoing pain in SNL rats. In kind it is in vivo, rat. As to conditions: intrathecal 50 μM, 10 μl; scramble peptide-paired chamber as comparison. The text has this:
Ongoing, or spontaneous, pain, which is most bothersome to patients, is difficult to treat and difficult to study in animals. The conditioned place preference test has been successfully developed to reveal the presence of non-evoked, ongoing pain and pain relief based on the preference of an animal for the context paired with a pain-relief treatment. The conditioned place preference can also capture the aversive aspects of pain. Strikingly, many studies have shown that the rodent conditioned place preference test accurately reflects the effectiveness of human clinical treatments. Therefore, this test is a powerful approach to investigate the potential effectiveness of new treatments and mechanisms for relief of ongoing pain. Two previous studies have examined the role of TRPA1 in ongoing pain by the conditioned place preference test. […] Because the antagonists used in those studies (HC030031 and Chem5861528) target TRPA1 monomers, it is possible that T100-Mut can inhibit ongoing pain by modulating the TRPA1/V1 complex. This possibility was tested in rodents with SNL-induced ongoing pain using the conditioned place preference test. […] Systemic administration of gabapentin, an analgesic that is known to alleviate neuropathic pain, was used as a positive control (FIG. 16B).

Assay [2] has as its system CFA-induced hyperalgesia in mice. Briefly: CFA injection: mechanical (von Frey) and thermal (Hargreaves) hyperalgesia. In kind it is in vivo, mouse. As to conditions: peptide 5 μl of 2 mM; 3 hours after treatment. As for the experimental part: Mice were placed in a transparent plastic box (4.5×5×10 cm) on a metal mesh and acclimatized for 30 minutes prior to testing. Each mouse was tested more than 5 times at a specific force manually, and the threshold was determined by the lowest force needed to elicit responses more than 50% of the time.
Mice were placed under a transparent plastic box (4.5×5×10 cm) on a glass platform (Plantar Test Apparatus, IITC Life Science). Radiant heat was adjusted to 18% of maximal output and shone on the center of the paws. Each mouse was tested more than 3 times, with each test performed 20 minutes apart.
Mice were injected with 6 μL of 50% emulsified Complete Freund's Adjuvant (Sigma, F5881) in normal saline.
The sequence from the last 28 amino acids of the C-terminus of the Tmem100-3Q mutant protein was synthesized and myristoylated at its N-terminus (myr-[…]-COOH) (SEQ ID NO: 8) by Twentyfirst Century Biochemicals. […] For the calcium imaging assay, the peptides were added to the calcium imaging buffer with a final concentration of 200 nM and incubated for at least […] at room temperature. For the mice behavioral assays, the peptides (5 μL, 2 mM) were injected subcutaneously in the hindpaw at least 30 minutes before testing. For the rat behavior assays, human T100-3Q (h-T100), a palmitoylated cell permeable peptide mutated based on the C terminus of human sequence in Tmem100, was applied. […]

The target of assay [3] is T1, TRPA1 (Mus musculus, UniProt Q704Y3+Q8BLA8).
T1 construct: endogenous in cells; host or cells: primary mouse DRG neurons
Briefly: Calcium imaging of DRG neurons, response to mustard oil (MO). In kind it is cell-based. As to conditions: peptide 200 nM pretreatment; 10 μM MO; IB4-negative DRG neurons. The protocol: Calcium imaging assays were performed as previously described (Liu et al., 2009). Cells were loaded with 2 μM fura 2-acetomethoxy ester (Molecular Probes) for 30 min in the dark at room temperature or for 45 minutes at 37° C. for DRG and cell lines, respectively. After washing, cells were imaged at 340 and 380 nm excitation to detect intracellular free calcium under a fluorescent microscope (Nikon Eclipse TE2000-S) and Lambda 10B shutter (Sutter Instrument). The cells were bathed in calcium imaging buffer (pH 7.45, 130 mM NaCl, 3 mM KCl, 2.5 mM CaCl2, 10 mM HEPES, 10 mM glucose, 1.2 mM NaHCO3, with sucrose to increase osmolarity to 290 mOsm). […] Images were processed and analyzed with NIS-Elements BR 2.30 software (Nikon). […] The data was analyzed with the experimenter blinded to the genotypes or constructs transfected.
DRG from 3 to 4-week old mice were collected in cold DH10 medium (90% DMEM/F-12, 10% FBS, 100 U/ml penicillin, and 100 μg/ml Streptomycin, Gibco) and treated with enzyme solution in HBSS containing collagenase (1.65 mg/mL, Worthington CLS I) and dispase (3.55 mg/mL, GIBCO 17105-041) at 37° C. for 30 minutes. […] This efficiency was determined by mCherry(+) divided by total number of cells in the bright fields. […]

Assay [4] deals with capsaicin-induced nocifensive behavior in WT mice. Briefly: Capsaicin injection: acute nocifensive behavior. In kind it is in vivo, mouse. As to conditions: capsaicin 0.6 μg, peptide 2 mM. The protocol: Mice were injected with 6 μL of capsaicin (0.1 μg/μL in normal saline/10% ethanol/0.5% Tween 80) in the hindpaws. The mice were placed in a plexiglass cylinder, and the total time spent licking and flinching was recorded for the first 10 minutes after injection.
The sequence from the last 28 amino acids of the C-terminus of the Tmem100-3Q mutant protein was synthesized and myristoylated at its N-terminus (myr-[…]-COOH) (SEQ ID NO: 8) by Twentyfirst Century Biochemicals. […] For the calcium imaging assay, the peptides were added to the calcium imaging buffer with a final concentration of 200 nM and incubated for at least […] at room temperature. For the mice behavioral assays, the peptides (5 μL, 2 mM) were injected subcutaneously in the hindpaw at least 30 minutes before testing. For the rat behavior assays, human T100-3Q (h-T100), a palmitoylated cell permeable peptide mutated based on the C terminus of human sequence in Tmem100, was applied. The sequence is Palmitoyl-[…]-COOH (SEQ ID NO: 7).

The subject of assay [5] is T2, TRPA1.
T2 construct: MO (10 μM)-evoked Ca2+ influx; other: TRPA1+TRPV1+Tmem100-3Q (1:1:4) CHO cells; MO (10 μM)-gated whole-cell current density; other: Vh=-60 mV; TRPA1+TRPV1+Tmem100-3Q (1:1:4) CHO cells; MO (10 μM)-induced single-channel activity (NPo); co-expressed with TRPA1+TRPV1 (1:1:4) in CHO cells
Briefly: MO-evoked Ca2+ influx into CHO cells expressing TRPA1+TRPV1. In kind it is cell-based. As to conditions: TRPA1+TRPV1+Tmem100-3Q (1:1:4) CHO cells. The protocol: Calcium imaging assays were performed as previously described (Liu et al., 2009). Cells were loaded with 2 μM fura 2-acetomethoxy ester (Molecular Probes) for 30 min in the dark at room temperature or for 45 minutes at 37° C. for DRG and cell lines, respectively. After washing, cells were imaged at 340 and 380 nm excitation to detect intracellular free calcium under a fluorescent microscope (Nikon Eclipse TE2000-S) and Lambda 10B shutter (Sutter Instrument). The cells were bathed in calcium imaging buffer (pH 7.45, 130 mM NaCl, 3 mM KCl, 2.5 mM CaCl2, 10 mM HEPES, 10 mM glucose, 1.2 mM NaHCO3, with sucrose to increase osmolarity to 290 mOsm). The reagents and buffers were applied through a gravity perfusion system at a rate of […], including mustard oil (Sigma 377430), cinnamaldehyde (Sigma C80687), menthol (Sigma M2780), and capsaicin (Sigma M2028). Cells with high baseline 340/380 values (>1.5) were excluded for analysis. For DRG neurons, IB4 staining was performed in the chamber with the dilution of 1:200 (Molecular Probes 121412) for 160 seconds before washing off at the end of each test. Images were processed and analyzed with NIS-Elements BR 2.30 software (Nikon). A responsive cell was defined as one that with greater than a 20% increase in the 340/380 ratio above the baseline. […] The data was analyzed with the experimenter blinded to the genotypes or constructs transfected.

* marks the point of attachment. Myristoyl = CCCCCCCCCCCCCC(=O)*

T1 sequence (Q8BLA8 whole entry): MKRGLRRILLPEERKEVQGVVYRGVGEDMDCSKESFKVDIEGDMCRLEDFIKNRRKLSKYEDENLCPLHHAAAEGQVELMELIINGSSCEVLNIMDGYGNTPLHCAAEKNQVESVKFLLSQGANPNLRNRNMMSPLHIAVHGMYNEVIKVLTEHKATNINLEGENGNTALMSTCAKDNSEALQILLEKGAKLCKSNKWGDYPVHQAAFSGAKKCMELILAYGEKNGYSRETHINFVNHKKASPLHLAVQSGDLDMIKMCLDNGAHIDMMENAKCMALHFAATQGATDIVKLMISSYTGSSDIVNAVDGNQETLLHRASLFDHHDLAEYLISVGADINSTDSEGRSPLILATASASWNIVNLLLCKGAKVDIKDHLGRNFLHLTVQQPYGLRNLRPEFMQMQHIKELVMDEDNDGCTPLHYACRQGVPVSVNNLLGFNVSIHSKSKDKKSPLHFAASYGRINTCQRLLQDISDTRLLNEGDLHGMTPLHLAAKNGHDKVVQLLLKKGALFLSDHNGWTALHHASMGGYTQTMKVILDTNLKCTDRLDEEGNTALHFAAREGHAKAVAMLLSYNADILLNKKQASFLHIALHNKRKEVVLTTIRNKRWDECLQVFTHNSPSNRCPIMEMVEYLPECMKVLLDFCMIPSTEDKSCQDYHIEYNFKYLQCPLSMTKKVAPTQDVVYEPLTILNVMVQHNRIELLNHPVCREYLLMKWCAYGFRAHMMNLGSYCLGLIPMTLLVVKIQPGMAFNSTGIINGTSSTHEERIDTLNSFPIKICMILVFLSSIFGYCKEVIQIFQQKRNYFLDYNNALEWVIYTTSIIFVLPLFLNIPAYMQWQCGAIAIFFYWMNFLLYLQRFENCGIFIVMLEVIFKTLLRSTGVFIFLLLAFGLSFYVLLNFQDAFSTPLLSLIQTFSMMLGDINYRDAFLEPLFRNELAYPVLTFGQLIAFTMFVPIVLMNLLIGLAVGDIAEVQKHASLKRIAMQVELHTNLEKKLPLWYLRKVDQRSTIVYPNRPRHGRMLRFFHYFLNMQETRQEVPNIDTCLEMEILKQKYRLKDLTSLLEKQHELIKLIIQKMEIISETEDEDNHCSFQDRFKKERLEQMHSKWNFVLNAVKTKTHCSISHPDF
T1 sequence (Q704Y3 whole entry): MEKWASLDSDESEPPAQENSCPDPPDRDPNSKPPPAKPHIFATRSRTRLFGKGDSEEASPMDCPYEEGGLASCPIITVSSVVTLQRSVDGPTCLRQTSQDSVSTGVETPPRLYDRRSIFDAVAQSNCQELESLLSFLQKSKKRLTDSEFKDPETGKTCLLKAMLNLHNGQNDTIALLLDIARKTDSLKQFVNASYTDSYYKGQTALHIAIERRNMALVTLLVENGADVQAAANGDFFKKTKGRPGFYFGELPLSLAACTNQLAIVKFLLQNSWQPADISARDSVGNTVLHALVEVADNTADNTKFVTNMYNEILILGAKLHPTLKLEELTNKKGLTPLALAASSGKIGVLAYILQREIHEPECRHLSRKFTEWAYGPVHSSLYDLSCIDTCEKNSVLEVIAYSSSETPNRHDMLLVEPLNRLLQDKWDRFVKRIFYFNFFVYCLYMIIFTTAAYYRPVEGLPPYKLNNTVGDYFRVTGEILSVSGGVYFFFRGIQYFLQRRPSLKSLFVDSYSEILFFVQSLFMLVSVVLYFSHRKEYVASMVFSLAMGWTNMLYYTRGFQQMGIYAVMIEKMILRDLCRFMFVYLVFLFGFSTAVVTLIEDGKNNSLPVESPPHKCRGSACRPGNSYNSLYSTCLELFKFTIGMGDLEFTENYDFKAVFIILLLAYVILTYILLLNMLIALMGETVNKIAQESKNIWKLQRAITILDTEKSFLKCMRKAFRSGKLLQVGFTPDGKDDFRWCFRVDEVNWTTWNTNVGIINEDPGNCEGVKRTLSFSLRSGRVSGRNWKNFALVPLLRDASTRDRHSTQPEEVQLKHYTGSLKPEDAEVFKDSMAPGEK

“myr-QRVLEQVLQNWSRRANVKQAQKFQVKCT-COOH (Myristoyl-QRVLEQVLQNWSRRANVKQAQKFQVKCT-OH; SMILES CCCCCCCCCCCCCC(=O)N[C@@H](CCC(N)=O)C(=O)N[C@@H](CCCNC(=N)N)C(=O)N[C@H](C(=O)N[C@@H](CC(C)C)C(=O)N[C@@H](CCC(=O)O)C(=O)N[C@@H](CCC(N)=O)C(=O)N[C@H](C(=O)N[C@@H](CC(C)C)C(=O)N[C@@H](CCC(N)=O)C(=O)N[C@@H](CC(N)=O)C(=O)N[C@@H](Cc1c[nH]c2ccccc12)C(=O)N[C@@H](CO)C(=O)N[C@@H](CCCNC(=N)N)C(=O)N[C@@H](CCCNC(=N)N)C(=O)N[C@@H](C)C(=O)N[C@@H](CC(N)=O)C(=O)N[C@H](C(=O)N[C@@H](CCCCN)C(=O)N[C@@H](CCC(N)=O)C(=O)N[C@@H](C)C(=O)N[C@@H](CCC(N)=O)C(=O)N[C@@H](CCCCN)C(=O)N[C@@H](Cc1ccccc1)C(=O)N[C@@H](CCC(N)=O)C(=O)N[C@H](C(=O)N[C@@H](CCCCN)C(=O)N[C@@H](CS)C(=O)N[C@H](C(=O)O)[C@@H](C)O)C(C)C)C(C)C)C(C)C)C(C)C) [scrambled]”: in assay [1], the “conditioned place preference: time in drug-paired chamber, SNL rats” value is reported as “no effect”. For the same molecule, in assay [2], the “CFA-induced mechanical hyperalgesia (mechanical threshold)” value turned out to be 0.05 ± 0.0 g and the “CFA-induced thermal hyperalgesia (latency)” value amounted to 3.9 ± 0.6 s. In addition, the “percentage of DRG neurons responding to MO” value in assay [3] was determined as 12±1.3%. Moreover, in assay [4], the “acute nocifensive behaviors induced by intradermal capsaicin injection” value was determined as 70 ± 11 s.

B1: Tmem100-3Q mutant (full-length, mouse) (protein)
chain: MTEESTKENLGAPKSPTPVTMEKNPKREVVVTTGPLVSEVQLMAATGGAELSCYRCIIPFAVVVFITGIVVTAVAYSFNSHGSIISIFGLVLLSSGLFLLASSALCWKVRQRNKKVQQQESQTALVVNQRCLFA
For B1, the “MO (10 μM)-evoked Ca2+ influx” value in assay [5] came out at 321 ± 18.2 nM.
